PubChem BioAssay AID330 (DTP/NCI, 2004)
Inconclusive results and toxic doses are left out. Rule for the calls: active = survival T/C of 150% or more; inactive = T/C below 125% in these data.

System: P388 leukemia ip, CD2F1 mice, survival T/C
Experiment: NCI In Vivo Anticancer Drug Screen. Data for tumor model P388 Leukemia (intraperitoneal) in CD2F1 (CDF1) mice
Settings: endpoint: median survival time, higher = longer survival
Outline: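 Mice carrying the transplanted tumor received test compound or vehicle. Survival was recorded in each group, and the value is the treated-group measurement divided by that of the vehicle-treated control group.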

[1] = dose: 60.0 mg/kg/injection, schedule: Q01DX005 (ip), vehicle: saline with Tween-80
[2] = dose: 120.0 mg/kg/injection, schedule: Q01DX005 (ip), vehicle: saline with Tween-80
[3] = dose: 240.0 mg/kg/injection, schedule: Q01DX005 (ip), vehicle: saline with Tween-80
[4] = dose: 50.0 mg/kg/injection, schedule: Q01DX005 (ip), vehicle: Klucel (hydroxypropylcellulose) (HPC)
[5] = dose: 100.0 mg/kg/injection, schedule: Q01DX005 (ip), vehicle: Klucel (hydroxypropylcellulose) (HPC)
[6] = dose: 200.0 mg/kg/injection, schedule: Q01DX005 (ip), vehicle: Klucel (hydroxypropylcellulose) (HPC)
[7] = dose: 60.0 mg/kg/injection, schedule: Q01DX005 (ip), vehicle: Klucel (hydroxypropylcellulose) (HPC)
[8] = dose: 120.0 mg/kg/injection, schedule: Q01DX005 (ip), vehicle: Klucel (hydroxypropylcellulose) (HPC)
[9] = dose: 240.0 mg/kg/injection, schedule: Q01DX005 (ip), vehicle: Klucel (hydroxypropylcellulose) (HPC)

Measured: T/C

Cc1nc(C(=O)O)c(C)c(=O)[nH]1
inactive: dose: 0.78 mg/kg/injection, schedule: Q01DX009 (ip), vehicle: water 96 % of control | dose: 0.78 mg/kg/injection, schedule: Q04DX003 (ip), vehicle: water 91 % of control | dose: 1.56 mg/kg/injection, schedule: Q01DX009 (ip), vehicle: water 96 % of control | dose: 1.56 mg/kg/injection, schedule: Q04DX003 (ip), vehicle: water 91 % of control | dose: 3.13 mg/kg/injection, schedule: Q01DX009 (ip), vehicle: water 112 % of control | dose: 3.13 mg/kg/injection, schedule: Q04DX003 (ip), vehicle: water 98 % of control | dose: 6.25 mg/kg/injection, schedule: Q01DX009 (ip), vehicle: water 119 % of control | dose: 6.25 mg/kg/injection, schedule: Q04DX003 (ip), vehicle: water 100 % of control | dose: 12.5 mg/kg/injection, schedule: Q01DX009 (ip), vehicle: water 114 % of control | dose: 12.5 mg/kg/injection, schedule: Q04DX003 (ip), vehicle: water 101 % of control

CC1CCC2OC23C(=O)C2OC2C(C(C)(C)O)C13C (stereo not drawn)
inactive: dose: 100.0 mg/kg/injection, schedule: Q01DX001 (ip), vehicle: Klucel (hydroxypropylcellulose) (HPC) 104 % of control | dose: 200.0 mg/kg/injection, schedule: Q01DX001 (ip), vehicle: Klucel (hydroxypropylcellulose) (HPC) 101 % of control | dose: 400.0 mg/kg/injection, schedule: Q01DX001 (ip), vehicle: Klucel (hydroxypropylcellulose) (HPC) 100 % of control

Nc1nc2c(-c3ccc([N+](=O)[O-])cc3)nnn2c2cccc(Cl)c12
inactive: [1] 98 % of control | [2] 99 % of control | [3] 97 % of control

Oc1ccc(C2(c3ccc(O)cc3)CC3CC2C2CCCC32)cc1 (stereo not drawn)
inactive: dose: 50.0 mg/kg/injection, schedule: Q01DX009 (ip), vehicle: Klucel (hydroxypropylcellulose) (HPC) 98 % of control | dose: 100.0 mg/kg/injection, schedule: Q01DX009 (ip), vehicle: Klucel (hydroxypropylcellulose) (HPC) 97 % of control | dose: 200.0 mg/kg/injection, schedule: Q01DX009 (ip), vehicle: Klucel (hydroxypropylcellulose) (HPC) 97 % of control

CC1c2ccccc2-c2ccccc2N1C(=O)c1cccc(C(=O)N2c3ccccc3-c3ccccc3C2C)n1 (stereo not drawn)
inactive: [1] 93 % of control | [2] 98 % of control | [3] 90 % of control

O=C(O)COc1cc2c(cc1Cc1ccc3c(c1)OCO3)OCO2
inactive: [4] 99 % of control | [5] 96 % of control | [6] 97 % of control

COC(=O)c1c(C)oc2ccccc2c1=O
inactive: [4] 101 % of control | [5] 103 % of control | [6] 103 % of control

O=C(CNC(=O)OCc1ccccc1)Oc1ccccc1[N+](=O)[O-]
inactive: dose: 50.0 mg/kg/injection, schedule: Q01DX009 (ip), vehicle: saline with Tween-80 94 % of control | dose: 100.0 mg/kg/injection, schedule: Q01DX009 (ip), vehicle: saline with Tween-80 100 % of control | dose: 200.0 mg/kg/injection, schedule: Q01DX009 (ip), vehicle: saline with Tween-80 111 % of control

CC1CCN(C)CC1
inactive: dose: 25.0 mg/kg/injection, schedule: Q01DX005 (ip), vehicle: saline 104 % of control | dose: 50.0 mg/kg/injection, schedule: Q01DX005 (ip), vehicle: saline 97 % of control | dose: 100.0 mg/kg/injection, schedule: Q01DX005 (ip), vehicle: saline 105 % of control

C/C=C/COc1cc2c(cc1C(C)c1ccc(OC)cc1)OCO2 (stereo not drawn)
inactive: dose: 50.0 mg/kg/injection, schedule: Q01DX005 (ip), vehicle: saline with Tween-80 107 % of control | dose: 100.0 mg/kg/injection, schedule: Q01DX005 (ip), vehicle: saline with Tween-80 106 % of control | dose: 200.0 mg/kg/injection, schedule: Q01DX005 (ip), vehicle: saline with Tween-80 119 % of control

Nc1nc(SCC(=O)O)[nH]c(=O)c1NS(=O)(=O)c1cccc([N+](=O)[O-])c1
inactive: [7] 96 % of control | [8] 93 % of control | [9] 93 % of control

COC(=O)C1(C(=O)OC)OC(c2ccc(OC)cc2)[C@H]2C(=O)N(C)C(=O)[C@H]21 (stereo partly drawn)
inactive: [7] 92 % of control | [8] 92 % of control | [9] 89 % of control

Cc1cc(=O)c(C#N)c(C)s1
inactive: dose: 100.0 mg/kg/injection, schedule: Q04DX002 (ip), vehicle: saline with Tween-80 107 % of control | dose: 200.0 mg/kg/injection, schedule: Q04DX002 (ip), vehicle: saline with Tween-80 100 % of control | dose: 400.0 mg/kg/injection, schedule: Q04DX002 (ip), vehicle: saline with Tween-80 110 % of control

Cc1cc(SSc2cc(C)nc(N)n2)nc(N)n1
inactive: dose: 100.0 mg/kg/injection, schedule: Q01DX001 (ip), vehicle: saline with Tween-80 86 % of control | dose: 200.0 mg/kg/injection, schedule: Q01DX001 (ip), vehicle: saline with Tween-80 86 % of control
